Measurements as given in patent US20090221581A1, “Methods of treating pain” (priority 2005, published 2009).
pIC50: −log10 of the molar value.

Assays:
SNI mice = experiment: Spared nerve injury (SNI) model of chronic neuropathic pain, von Frey assay; assay type: in vivo
Excerpt: As outlined above, the spared nerve injury (SNI) model (see FIG. 1) involves a lesion of two of the three terminal branches of the sciatic nerve (tibial and common peroneal nerves) of experimental animals, leaving the sural nerve intact. SNI results in mechanical and thermal allodynia in the non-injured sural nerve skin territory (Decosterd & Woolf, Pain 2000; 87:149-158; Tsujino et al., Mol. Cel. Neurosci. 2000; 15:170-182).
Wildtype mice (strain C3HeB/FeJ) (age, sex and weight matched) were anesthetized with Hypnorm (0.315 mg/ml fentanyl citrate+10 mg/ml fluanisone; Janssen)/Hypnovel (5 mg/ml midazolam; Roche Applied Sciences)/water at a ratio of 1:1:2 at 4 μl/g prior to surgical preparation.
Subsequently, an incision was made under aseptic precautions in the ipsi-lateral right hind leg of all mice just above the level of the knee, exposing the three terminal branches of the sciatic nerve: the common peroneal, tibial, and sural nerves. The common peroneal and tibial nerves were ligated tightly with 7/0 silk and sectioned distal to the ligation removing ≈2 mm of distal nerve stump. The sural branch remained untouched during the procedure (denoted herein “SNI ipsi”). The overlying muscle and skin was sutured, and the animals were allowed to recover and to permit wound healing. In the same mice, the sciatic nerve branches of the contra-lateral left hind leg were exposed but not lesioned (denoted herein “SNI contra-lateral”). Mice that underwent spared nerve injury are hereinafter denoted “SNI mice”.
After recovery from surgery and wound healing, SNI mice received intraperitoneal (i.p.) injections of CDK-inhibiting compounds. In particular, compound A and B as disclosed herein, belonging to the class of 4,6-disubstituted aminopyrimidine derivatives as described in WO2005/026129 were administered. […]
Injection of inhibitor or vehicle, and subsequent measurements of paw withdrawal threshold upon mechanical stimulation in von Frey assays were performed at day 0, day 7, day 21 and day 28 post SNI. Reflex nociceptive responses to mechanical stimulation were measured in a von Frey assay 30 min after each injection. An additional von Frey measurement was performed at day 14, but without prior injection of compound or vehicle.
Mice which underwent SNI and subsequent administration of the CDK-inhibiting compounds of the present invention were tested for signs of mechanical allodynia post nerve injury and post administration in a von Frey assay (Decosterd and Woolf, Pain 2000; 87:149-158). This assay determines the mechanical threshold upon which a stimulus, which normally is not painful, is recognized by an animal as uncomfortable or painful. SNI ipsi and SNI contra baselines, respectively, were established.
Mechanical thresholds of SNI mice were quantified using the up-down method based on Chaplan et al. (1994) and Malmberg and Basbaum (1998):
Mice were placed in plexiglass cylinders of about 9.5 cm in diameter, 14 cm high with four vent holes towards the top and a Plexiglas lid. The cylinders were placed on an elevated mesh surface (7×7 mm squares). Prior to the day of testing, the mice were adapted to the testing cylinders for 1-2 hours. On the day of testing the mice were adapted to the cylinders for about an hour, wherein the adaptation time depends on factors such as the strain of the mouse and the number of times they have been tested previously. In general, testing may begin once the mice are calm and stop exploring the new environment.
For testing mice, filaments 2.44, 2.83, 3.22, 3.61, 3.84, 4.08, and 4.31 (force range=0.04 to 2.0 g) were used. The […] filament was applied first. Said filament was gently applied to the plantar surface of one paw, allowed to bend, and held in position for 2-4 seconds. Whenever a positive response to the stimulus (flexion reaction) occurred, the next weaker von Frey filament was applied; whenever a negative response (no reaction) occurred, the next stronger force was applied. […]

CDK5/p35NCK = target: T1, CDK5/p35NCK (Homo sapiens, UniProt Q00535); experiment: In vitro kinase inhibition assay, CDK5/p35NCK; assay type: biochemical
T1 construct: made in house; host or cells: Sf9 insect cells, baculovirus

CDK7/CycH/MAT1 = target: T2, CDK7/CycH/MAT1 (Homo sapiens, UniProt P50613); experiment: In vitro kinase inhibition assay, CDK7/CycH/MAT1; assay type: biochemical
T2 construct: made in house; host or cells: Sf9 insect cells, baculovirus

CDK1/CycB = target: T3, CDK1/CycB (Homo sapiens, UniProt P06493); experiment: In vitro kinase inhibition assay, CDK1/CycB; assay type: biochemical
T3 construct: made in house; host or cells: Sf9 insect cells, baculovirus

carrageenan-treated mice = experiment: Carrageenan assay, paw edema; assay type: in vivo; settings: 30 mg/kg i.p. 30 min prior to carrageenan
Excerpt: The model of carrageenan-induced paw edema constitutes a standard laboratory assay used to predict anti-inflammatory activity of therapeutically active compounds and reduction of inflammation-induced pain perception achieved by administration of therapeutically active compounds.
The basic measurement constitutes in the measurement of edema size and of mechanical as well as thermal hypersensitivity in response to irritants, such as carrageenan.
Inflammation and subsequent inflammatory pain is induced by subcutaneous injection of 25 μl of 1% carrageenan (in saline) into the hind paw (ipsi-lateral paw) of mice. Groups of 10 mice each received compound A, 30 mg/kg body weight, vehicle (DMA/Labrafil; 10:90) and saline (physiol. NaCl) by i.p. injection 30 min prior to carrageenan injection.
Paw edema induced by carrageenan injection was detected by increased paw size measured from dorsal to plantar at the metatarsus region of the injected (ipsi-lateral) paws. Sizes of ipsi- and contra-lateral paws (see FIG. 6, paw size [mm]) served as surrogate markers for inflammation and were measured at several time points after carrageenan injection: 1 h before injection (−1), immediately after injection, 1 h (1), 2 h (2), 4 h (4), 5 h (5), 6 h (6), 7 h (7), 24 h (24), 48 h (48), 72 h (72), 96 h (96), and 98 h (98) after injection. […]

T1 sequence (Q00535 whole entry): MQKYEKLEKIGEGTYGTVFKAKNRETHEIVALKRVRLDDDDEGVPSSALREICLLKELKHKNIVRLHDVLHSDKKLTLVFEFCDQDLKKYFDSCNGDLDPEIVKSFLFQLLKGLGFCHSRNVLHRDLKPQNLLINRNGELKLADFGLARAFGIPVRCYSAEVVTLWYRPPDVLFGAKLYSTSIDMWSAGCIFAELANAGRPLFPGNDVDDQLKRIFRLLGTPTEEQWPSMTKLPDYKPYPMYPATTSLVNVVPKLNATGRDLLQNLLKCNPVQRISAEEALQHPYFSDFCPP
T1 sequence (Q15078 whole entry partner): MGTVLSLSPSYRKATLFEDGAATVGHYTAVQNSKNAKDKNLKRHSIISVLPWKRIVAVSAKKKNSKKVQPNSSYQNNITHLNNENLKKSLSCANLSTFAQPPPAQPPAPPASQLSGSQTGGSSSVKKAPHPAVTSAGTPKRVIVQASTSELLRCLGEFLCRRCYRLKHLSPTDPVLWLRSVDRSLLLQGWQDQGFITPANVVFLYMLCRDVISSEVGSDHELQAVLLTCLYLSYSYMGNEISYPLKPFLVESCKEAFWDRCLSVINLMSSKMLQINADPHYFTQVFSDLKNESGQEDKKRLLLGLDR
T2 sequence (P50613 whole entry): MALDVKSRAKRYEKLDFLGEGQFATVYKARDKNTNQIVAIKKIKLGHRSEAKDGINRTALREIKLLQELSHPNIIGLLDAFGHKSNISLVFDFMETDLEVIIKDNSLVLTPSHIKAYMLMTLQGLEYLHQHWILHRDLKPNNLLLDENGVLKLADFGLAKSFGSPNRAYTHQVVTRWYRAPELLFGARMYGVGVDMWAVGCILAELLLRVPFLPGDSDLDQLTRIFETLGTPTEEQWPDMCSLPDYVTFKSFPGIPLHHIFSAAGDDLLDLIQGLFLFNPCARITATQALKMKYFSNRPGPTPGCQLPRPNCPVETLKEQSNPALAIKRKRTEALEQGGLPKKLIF
T2 sequence (P51946 whole entry partner): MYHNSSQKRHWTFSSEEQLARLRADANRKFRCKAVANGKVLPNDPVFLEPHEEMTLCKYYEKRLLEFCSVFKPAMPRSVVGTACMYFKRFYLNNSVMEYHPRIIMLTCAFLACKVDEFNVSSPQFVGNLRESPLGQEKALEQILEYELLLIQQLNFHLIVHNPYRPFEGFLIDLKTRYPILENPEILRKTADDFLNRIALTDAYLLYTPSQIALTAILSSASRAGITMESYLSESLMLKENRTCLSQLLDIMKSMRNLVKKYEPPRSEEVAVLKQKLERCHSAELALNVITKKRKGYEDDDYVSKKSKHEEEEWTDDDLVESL
T2 sequence (P51948 whole entry partner): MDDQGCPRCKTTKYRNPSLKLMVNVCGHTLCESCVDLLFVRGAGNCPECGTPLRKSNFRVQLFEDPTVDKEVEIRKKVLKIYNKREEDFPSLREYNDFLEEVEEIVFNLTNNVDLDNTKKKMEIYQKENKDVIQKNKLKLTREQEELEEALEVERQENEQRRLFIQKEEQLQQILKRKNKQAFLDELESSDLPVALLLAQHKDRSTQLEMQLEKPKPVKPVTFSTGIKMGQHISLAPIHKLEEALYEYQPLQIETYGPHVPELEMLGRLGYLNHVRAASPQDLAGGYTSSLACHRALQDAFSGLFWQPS
T3 sequence (P06493 whole entry): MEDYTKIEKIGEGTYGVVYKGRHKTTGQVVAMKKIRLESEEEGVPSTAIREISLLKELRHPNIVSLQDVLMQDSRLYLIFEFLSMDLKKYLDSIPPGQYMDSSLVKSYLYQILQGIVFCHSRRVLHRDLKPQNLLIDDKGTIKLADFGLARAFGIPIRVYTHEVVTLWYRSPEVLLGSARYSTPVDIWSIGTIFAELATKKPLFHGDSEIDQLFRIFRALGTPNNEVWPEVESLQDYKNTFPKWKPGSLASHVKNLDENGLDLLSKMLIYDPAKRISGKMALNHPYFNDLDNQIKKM
T3 sequence (P14635 whole entry partner): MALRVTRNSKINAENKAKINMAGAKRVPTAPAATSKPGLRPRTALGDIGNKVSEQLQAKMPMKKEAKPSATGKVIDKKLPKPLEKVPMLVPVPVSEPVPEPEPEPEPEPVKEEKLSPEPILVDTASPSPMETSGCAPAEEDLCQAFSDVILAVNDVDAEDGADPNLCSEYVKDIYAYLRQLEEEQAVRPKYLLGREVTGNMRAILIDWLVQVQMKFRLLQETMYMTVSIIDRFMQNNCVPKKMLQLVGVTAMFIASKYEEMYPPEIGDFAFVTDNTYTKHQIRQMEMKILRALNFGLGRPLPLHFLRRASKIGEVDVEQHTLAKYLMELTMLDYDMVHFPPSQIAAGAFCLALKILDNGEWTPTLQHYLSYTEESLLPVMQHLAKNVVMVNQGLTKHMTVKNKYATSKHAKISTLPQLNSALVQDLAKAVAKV

For `COc1ccccc1-c1cc(Nc2cccc(S(N)(=O)=O)c2)ncn1` [Compound A], the “effect on von Frey mechanical threshold” value (SNI mice; 30 mg/kg at midnight and 8.00 a.m., measured 8.30 a.m., day 28 post SNI) was “significant increases in thresholds”, the “effect on SNI-induced allodynia (von Frey)” value (SNI mice; 30 mg/kg i.p. 30 minutes before von Frey testing) was “hypoalgesic effect” and the “effect on von Frey mechanical threshold” value (SNI mice; 30 mg/kg i.p. 30 minutes prior to measurements, day 21 post SNI) was “significant increase of threshold values”. For the same compound, the “effect on von Frey mechanical threshold” value (SNI mice; 30 mg/kg i.p., day 7 post SNI) was “does not show any effect”, the “average von Frey threshold value, contra-lateral paw” value (SNI mice; 30 mg/kg i.p., day 21 and 28) was ~0.4 g and the “average von Frey threshold value, ipsi-lateral paw” value (SNI mice; 30 mg/kg i.p., day 21 and 28) was ~0.3 g. The pIC50 (CDK5/p35NCK) was 4.24, the pIC50 (CDK7/CycH/MAT1) was 5.00 and the pIC50 (CDK1/CycB) was 4.80. For the same compound, the “increase in paw size” value (carrageenan-treated mice; 24 h after carrageenan injection (control mice 30%)) was 8% and the “increase in paw size” value (carrageenan-treated mice; within the first hour after carrageenan injection) was 10%.
